# Test system: AAR^CAp
# Settings: read-out: KM^AcAcCoA; NADH fixed at 300 µM; 50 mM Tris pH 8, 5 mM MgCl2, 5 mM NaCl; 30 °C
smiles,measurement,value
CC(=O)CC(=O)SCCNC(=O)CCNC(=O)[C@H](O)C(C)(C)COP(=O)(O)OP(=O)(O)OC[C@H]1O[C@@H](n2cnc3c(N)ncnc32)[C@H](O)[C@@H]1OP(=O)(O)O [acetoacetyl-CoA],Km,56.7 µM
